Target: T1, human Y5 receptor (Homo sapiens, UniProt Q15761)
T1 construct: expressed in transfected cells; host or cells: mouse fibroblast LM(tk-) cells, e.g. L-hY5-7 (ATCC CRL-11995)
T1 sequence (Q15761 1-445): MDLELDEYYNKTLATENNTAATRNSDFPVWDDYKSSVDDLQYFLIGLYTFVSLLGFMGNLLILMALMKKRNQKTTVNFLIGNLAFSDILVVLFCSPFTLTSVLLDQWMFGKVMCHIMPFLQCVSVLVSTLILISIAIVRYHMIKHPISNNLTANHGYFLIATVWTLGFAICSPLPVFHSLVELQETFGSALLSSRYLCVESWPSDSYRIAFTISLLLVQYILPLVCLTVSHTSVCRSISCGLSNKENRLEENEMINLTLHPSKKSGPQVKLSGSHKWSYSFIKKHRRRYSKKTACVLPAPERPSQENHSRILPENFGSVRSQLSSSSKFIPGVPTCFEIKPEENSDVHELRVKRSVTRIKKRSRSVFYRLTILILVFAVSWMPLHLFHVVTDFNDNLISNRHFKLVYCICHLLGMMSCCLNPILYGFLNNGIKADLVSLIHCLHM
Assay: Radioligand binding to membranes, cloned human Y5 receptor
Settings: Table 6; read-out: Ki, nM hNPY-5

| Compound | Ki [nM] |
| --- | --- |
| O=S(=O)(NCCCCCNc1nc2c(s1)CCSc1ccccc1-2)c1cccc2ccccc12 [Example 127, N1-[5-(4,5-Dihydrobenzo[2,3]thiepino[4,5-d][1,3]thiazol-2-ylamino)pentyl]-1-naphthalenesulfonamide] | 17.2 |
| O=S(=O)(NCCCCCNc1nc2c(s1)CCSc1ccccc1-2)c1ccccc1F [Example 128, N1-[5-(4,5-Dihydrobenzo[2,3]thiepino[4,5-d][1,3]thiazol-2-ylamino)pentyl]-2-fluoro-1-benzenesulfonamide] | 3.7 |
| O=S(=O)(NCCCCCCNc1nc2c(s1)CCSc1ccccc1-2)c1ccc(-c2ccon2)s1 [Example 129, N2-[6-(4,5-Dihydrobenzo[2,3]thiepino[4,5-d][1,3]thiazol-2-ylamino)hexyl]-5-(3-isoxazolyl)-2-thiophenesulfonamide] | 29 |
| O=[N+]([O-])c1ccccc1S(=O)(=O)NCCCCCNc1nc2c(s1)CCSc1ccccc1-2 [Example 130, N1-[5-(4,5-Dihydrobenzo[2,3]thiepino[4,5-d][1,3]thiazol-2-ylamino)pentyl]-2-nitro-1-benzenesulfonamide] | 5.2 |
| O=S(=O)(NCCCCCNc1nc2c(s1)CCSc1ccccc1-2)c1c(Cl)cccc1Cl [Example 131, N1-[5-(4,5-Dihydrobenzo[2,3]thiepino[4,5-d][1,3]thiazol-2-ylamino)pentyl]-2,6-dichloro-1-benzenesulfonamide] | 71 |
| COc1cccc(Br)c1S(=O)(=O)NCCCCCNc1nc2c(s1)CCSc1ccccc1-2 [Example 132, N1-[5-(4,5-Dihydrobenzo[2,3]thiepino[4,5-d][1,3]thiazol-2-ylamino)pentyl]-2-bromo-6-methoxy-1-benzenesulfonamide] | 9.7 |
| O=S(=O)(Cc1ccccc1)NCCCCCNc1nc2c(s1)CCSc1ccccc1-2 [Example 133, N-[5-(4,5-dihydrobenzo[2,3]thiepino[4,5-d][1,3]thiazol-2-ylamino)pentyl]phenyl-methanesulfonamide] | 38 |
| Cc1cccc(F)c1S(=O)(=O)NCCCCCNc1nc2c(s1)CCSc1ccccc1-2 [Example 134, N1-[5-(4,5-Dihydrobenzo[2,3]thiepino[4,5-d][1,3]thiazol-2-ylamino)pentyl]-2-fluoro-6-methyl-1-benzenesulfonamide] | 8.3 |
| Cc1cccc(F)c1S(=O)(=O)NCCCCNc1nc2c(s1)CCSc1ccccc1-2 [Example 135, N1-[4-(4,5-dihydrobenzo[2,3]thiepino[4,5-d][1,3]thiazol-2-ylamino)butyl]-2-fluoro-6-methyl-1-benzenesulfonamide] | 110 |
| O=S(=O)(NCCCCCNc1nc2c(s1)CCSc1ccccc1-2)c1ccc(F)cc1F [Example 137, N1-[5-(4,5-Dihydrobenzo[2,3]thiepino[4,5-d][1,3]thiazol-2-ylamino)pentyl]-2,4-difluoro-1-benzenesulfonamide] | 6.5 |
| O=S(=O)(NCCCCNc1nc2c(s1)CCSc1ccccc1-2)c1ccc(F)cc1F [Example 138, N1-[4-(4,5-Dihydrobenzo[2,3]thiepino[4,5-d][1,3]thiazol-2-ylamino)butyl]-2,4-difluoro-1-benzenesulfonamide] | 119 |
| CN(C)C(=O)NCCCCCNc1nc2c(s1)CCSc1ccccc1-2 [Example 139, N′-[5-(4,5-Dihydrobenzo[2,3]thiepino[4,5-d][1,3]thiazol-2-ylamino)pentyl]-N,N-dimethylurea] | 122 |
| O=C(NCCCCNc1nc2c(s1)CCSc1ccccc1-2)c1cccc2ccccc12 [Example 140, N1-[4-(4,5-Dihydrobenzo[2,3]thiepino[4,5-d][1,3]thiazol-2-ylamino)butyl]-1-naphthamide] | 123 |
| O=C(NCCCCCNc1nc2c(s1)CCSc1ccccc1-2)c1cccs1 [Example 141, N2-[5-(4,5-Dihydrobenzo[2,3]thiepino[4,5-d][1,3]thiazol-2-ylamino)pentyl]-2-thiophenecarboxamide] | 84 |
| O=C(NCCCCCNc1nc2c(s1)CCSc1ccccc1-2)c1ccc2ccccc2c1 [Example 142, N2-[5-(4,5-Dihydrobenzo[2,3]thiepino[4,5-d][1,3]thiazol-2-ylamino)pentyl]-2-naphthamide] | 100 |
| CCCS(=O)(=O)NCCCCCCNc1nc2c(s1)CCSc1ccccc1-2 [Example 143, N1-[6-(4,5-Dihydrobenzo[2,3]thiepino[4,5-d][1,3]thiazol-2-ylamino)hexyl]-1-propanesulfonamide] | 3.6 |

| Compound | Ki [nM] |
| --- | --- |
| O=S(=O)(NCCCCCCNc1nc2c(s1)CCSc1ccccc1-2)c1cccc(C(F)(F)F)c1 [Example 144, N1-[6-(4,5-dihydrobenzo[2,3]thiepino[4,5-d][1,3]thiazol-2-ylamino)hexyl]-3-(trifluoromethyl)-1-benzenesulfonamide] | 22.4 |
| O=S(=O)(NCCCCCCNc1nc2c(s1)CCSc1ccccc1-2)c1ccc(F)cc1F [Example 145, N1-[6-(4,5-Dihydrobenzo[2,3]thiepino[4,5-d][1,3]thiazol-2-ylamino)hexyl]-2,4-difluoro-1-benzenesulfonamide] | 4.1 |
| O=S(=O)(NCCCCCCNc1nc2c(s1)CCSc1ccccc1-2)c1c(Cl)cccc1Cl [Example 146, N1-[6-(4,5-Dihydrobenzo[2,3]thiepino[4,5-d][1,3]thiazol-2-ylamino)hexyl]-2,6-dichloro-1-benzenesulfonamide] | 25 |
| COc1cccc(Br)c1S(=O)(=O)NCCCCCCNc1nc2c(s1)CCSc1ccccc1-2 [Example 147, N1-[6-(4,5-Dihydrobenzo[2,3]thiepino[4,5-d][1,3]thiazol-2-ylamino)hexyl]-2-bromo-6-methoxy-1-benzenesulfonamide] | 7.9 |
| O=S(=O)(Cc1ccccc1)NCCCCCCNc1nc2c(s1)CCSc1ccccc1-2 [Example 148, N-[6-(4,5-Dihydrobenzo[2,3]thiepino[4,5-d][1,3]thiazol-2-ylamino)hexyl]phenylmethane-sulfonamide] | 10.5 |
| Cc1cccc(F)c1S(=O)(=O)NCCCCCCNc1nc2c(s1)CCSc1ccccc1-2 [Example 149, N1-[6-(4,5-Dihydrobenzo[2,3]thiepino[4,5-d][1,3]thiazol-2-ylamino)hexyl]-2-fluoro-6-methyl-1-benzenesulfonamide] | 4 |
| O=S(=O)(NC[C@H]1CC[C@H](Nc2nc3c(s2)CCSc2ccccc2-3)CC1)c1cccc(C(F)(F)F)c1 [Example 150, N1-{[4-(4,5-Dihydrobenzo[2,3]thiepino[4,5-d][1,3]thiazol-2-ylamino)cyclohexyl]methyl}-3-(trifluoromethyl)-1-benzenesulfonamide] | 21 |
| O=S(=O)(NC[C@H]1CC[C@H](Nc2nc3c(s2)CCSc2ccccc2-3)CC1)c1ccc(F)cc1F [Example 151, N1-{[4-(4,5-Dihydrobenzo[2,3]thiepino[4,5-d][1,3]thiazol-2-ylamino)cyclohexyl]methyl}-2,4-difluoro-1-benzenesulfonamide] | 7.9 |
| O=S(=O)(NC[C@H]1CC[C@H](Nc2nc3c(s2)CCSc2ccccc2-3)CC1)c1c(Cl)cccc1Cl [Example 152, N1-{[4-(4,5-Dihydrobenzo[2,3]thiepino[4,5-d][1,3]thiazol-2-ylamino)cyclohexyl]methyl}-2,6-dichloro-1-benzenesulfonamide] | 17.4 |
| O=S(=O)(Cc1ccccc1)NC[C@H]1CC[C@H](Nc2nc3c(s2)CCSc2ccccc2-3)CC1 [Example 153, N-{[4-(4,5-Dihydrobenzo[2,3]thiepino[4,5-d][1,3]thiazol-2-ylamino)cyclohexyl]methyl}phenyl-methanesulfonamide] | 8.9 |
| N#Cc1ccccc1S(=O)(=O)NC[C@H]1CC[C@H](Nc2nc3c(s2)CCSc2ccccc2-3)CC1 [Example 154, N1-{[4-(4,5-Dihydrobenzo[2,3]thiepino[4,5-d][1,3]thiazol-2-ylamino)cyclohexyl]methyl}-2-cyano-1-benzenesulfonamide] | 69 |
| O=S(=O)(NC[C@H]1CC[C@H](Nc2nc3c(s2)CCSc2ccccc2-3)CC1)c1ccc(F)cc1 [Example 155, N1-{[4-(4,5-Dihydrobenzo[2,3]thiepino[4,5-d][1,3]thiazol-2-ylamino)cyclohexyl]methyl}-4-fluoro-1-benzenesulfonamide] | 9.1 |
| Cc1ccc(S(=O)(=O)NC[C@H]2CC[C@H](Nc3nc4c(s3)CCSc3ccccc3-4)CC2)cc1 [Example 156, N1-{[4-(4,5-Dihydrobenzo[2,3]thiepino[4,5-d][1,3]thiazol-2-ylamino)cyclohexyl]methyl}-4-methyl-1-benzenesulfonamide] | 6.6 |
| COCCN(C=O)[C@H]1CC[C@H](CNc2nc3c(s2)CCSc2ccccc2-3)CC1 [Example 163, trans-N-4-[(4,5-dihydrobenzo[2,3]thiepino[4,5-d][1,3]thiazol-2-ylamino)methyl]cyclohexyl-N-(2-methoxyethyl)formamide] | 12.3 |
| COCCN(C=O)[C@H]1CC[C@H](CNc2nc3c(s2)CCSc2ccc(F)cc2-3)CC1 [Example 164, trans-N-(4-[(9-Fluoro-4,5-dihydrobenzo[2,3]thiepino-[4,5-d][1,3]thiazol-2-yl)amino]methylcyclohexyl)-N-(2-methoxyethyl)formamide] | 13 |
| CC(C)N(C=O)[C@H]1CC[C@H](CNc2nc3c(s2)CCSc2ccccc2-3)CC1 [Example 165, trans-N-4-[(4,5-Dihydrobenzo[2,3]thiepino[4,5-d][1,3]thiazol-2-ylamino)methyl]cyclohexyl-N-isopropylformamide] | 4.8 |

— patent publication US7189720B2 (H. Lundbeck A/S, priority 1999, dated 2007)
